Measured values taken from patent US20220249533A1, “COMPOSITIONS AND METHODS FOR BONE REPAIR AND BONE HEALTH” (DUKE UNIVERSITY, priority 2019, published 2022).

Tests used:
[1] = system: young and old mice bone marrow stromal cells; assay: Alizarin Red S deposition, bone marrow stromal cells with adenosine; format: cell-based, mouse
Method: Alizarin Red S, an anthraquinone derivative, may be used to identify calcium in tissue sections. […] Calcium forms an Alizarin Red S-calcium complex in a chelation process, and the end product is birefringent. […]
• Aspirate medium from cell dish (P1 cells). • Rinse with sterile PBS, aspirate. • Add 5 mL trypsin (T75 flask), incubate for 4 min at 37 C. • Add 5 mL GM to stop. • Use cell scraper to further release cells. • Transfer to tube, use additional 5 mL GM to rinse the dish and transfer. • Spin down at 1200 rpm for 4 min. • Resuspend cells, seed into culture plate at 20,000 cells/cm^2. • 2 mL/well in 6-well • 0.5 mL/well in 24-well • Freeze the rest cells in freezing medium. • 10% DMSO • 90% GM • Prepare GM-ADO (60 ug/mL) fresh: • 18 mL GM • 180 uL ADO stock (6 mg/mL) • Refresh medium daily for two weeks with the culture conditions: • GM • GM-ADO • OM (positive control) • In the third week, use phosphate supplementation: • GM+ADO +3 mM phosphate • GM+3 mM phosphate • OM (positive control) • Alizarin red S staining at 14 d and 21 d • Wash cells gently with PBS. • Fix with 4% PFA for 15 min. […] Discard milliQ water. • Alizarin red S quantification • Add 500 ul of HCl (0.5M) to each well for 10 min. at room temp with gentle shaking. • Transfer HCl solution in each well into one 1.5 ml microcentrifuge tube. […]

[2] = system: mouse mononuclear cells undergoing osteoclast differentiation; assay: Osteoclast differentiation with adenosine in vitro; format: cell-based; settings: adenosine 30 μg/ml, 6 days of osteoclast differentiation
Method: All buffers used were ice cold, unless otherwise indicated. Briefly, the femur, tibia, humerus, radius, ulna, and vertebra were harvested and crushed with pestle and mortar in harvest buffer [phosphate-buffered solution (PBS) and FBS (2%, v/v)] to release BM tissue. BM was passed through a 70-μm cell strainer and centrifuged at 200 g for 5 min. Cells were resuspended in harvest buffer, gently layered onto Ficoll-Paque PLUS (GE Healthcare, Marlborough, Mass.) at 1:1 ratio, and centrifuged without rotor acceleration and deceleration at 200 g for 15 min. Afterward, the opaque middle layer with cells was collected, washed with harvest buffer, and centrifuged at 200 g for 5 min to yield a cell pellet. Isolated mononuclear cells were cultured in macrophage induction media, containing growth media, prostaglandin E2 (PGE2; 10^−7 M; Santa Cruz Biotechnology, Dallas, Tex.), and M-CSF (10 ng/ml; PeproTech, Rocky Hill, N.J.) at 100,000 cells/cm^2. For osteoclast differentiation, macrophages cultured for 3 days were further induced in osteoclast induction media containing growth media, PGE2 (10^−7 M), M-CSF (10 ng/ml), and RANKL (10 ng/ml; PeproTech). […]

[3] = system: primary mouse osteoprogenitor cells; assay: Adenosine-induced osteogenic differentiation in vitro; format: cell-based; settings: adenosine 30 μg/ml, 7 or 14 days, no osteogenic-inducing factors
Description: Osteoprogenitor cells were isolated as previously described with modifications. All buffers were ice cold, unless otherwise indicated. Briefly, the femur, tibia, humerus, radius, and ulna of mice were harvested. BM was flushed out and discarded. The bone was collected and cut into 1-mm^3 chips in harvest buffer and then digested in digestion buffer containing growth media [α minimum essential medium (αMEM), fetal bovine serum (FBS) (10%, v/v), penicillin/streptomycin (10,000 U/ml; 1%, v/v)], and collagenase type 2 (1 mg/ml, w/v; Worthington Biochemical, Lakewood, N.J.) while shaking at 60 rpm on orbital shaker (catalog no. 51700-13, Cole-Parmer, Vernon Hills, Ill.) in humidified incubator (37° C., 5% CO2) for 1.5 hours. Digested bone chips were rinsed three times with growth media and transferred to two wells of six-well plate for culture. Media were […] days, and bone chips were further cultured for 3 days for cells to adhere and proliferate before passage. For the first passage, cells were treated with 0.25% trypsin-EDTA (Thermo Fisher Scientific) for 3 min, neutralized with growth media, detached with cell scraper, and subcultured along with bone chips. The procedure for subsequent passages were similar but without bone chips. All experiments were performed at three to four passages. […]

OVX mice = assay: A2BR agonist BAY 60-6583 treatment of OVX animals; format: in vivo

SMILES | fold change of alizarin red S deposition, ADO compared to GM ([1]; female) | osteogenic differentiation, alizarin red S deposition ([1]; young and aged cells from either sex, 2D culture, ADO 60 ug/mL) | expression of Nfatc1, ACP5 and CTSK [2] | expression of osterix (OSX) and osteopontin (OPN) [3] | bone tissue, H&E staining (OVX mice; 1 mg/kg intraperitoneally every 2 days, 8 weeks) | OVX changes of vertebra BMD, BV/TV, Tb.N, Tb.Sp by microCT (OVX mice; 8 weeks) | femur bone volume (BV/TV) by microCT (OVX mice; 8 weeks) | mineral apposition rate and bone formation rate (OVX mice; 8 weeks, bone labeling) | maximum load and stiffness of tibia (OVX mice; 8 weeks, compared to the corresponding controls) | TRAP-positive cells on the bone surface (OVX mice; 8 weeks, compared to the vehicle control) | CD73 and CD39 expression levels, immunofluorescence (OVX mice; vehicle- vs BAY 60-6583-treated groups)
Nc1ncnc2c1ncn2[C@@H]1O[C@H](CO)[C@@H](O)[C@H]1O [adenosine] | larger fold change | induced osteogenic differentiation | reduced expression | up-regulation |  |  |  |  |  |  | 
N#Cc1c(N)nc(SCC(N)=O)c(C#N)c1-c1ccc(OCC2CC2)cc1 [BAY 60-6583] |  |  |  |  | attenuation of bone loss | attenuated | bone loss was diminished | abrogation of the bone loss | improved | decreased number | no significant differences
